Values quoted from earlier work as cited in patent US20090142410A1, “Nutritional composition and method for increasing creatine uptake and retention in skeletal muscle, increasing muscle mass and strength, increasing exercise capacity and for aiding recovery following exercise” (priority 2006, published 2009).

Details: concomitant ingestion with carbohydrates

CN(CC(=O)O)C(=N)N [Creatine, N-methyl-N-guanyl Glycine]
improvement of Creatine retention: up to 60%
